Patent US10364263B2, “Cyclic phosphates and cyclic phosphoramidates for the treatment of neurologic disorders” (Retrophin, Inc., priority 2015, dated 2019)
Read-outs that look alike come from different tables or passages of the source.

Experiments:
[1] = Stability in mouse plasma; format: in vitro ADME
Outline: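 Test compound at 3 μM (0.1% DMSO) was incubated in mouse or human plasma at 37 °C and sampled in duplicate at 0, 10, 20, 30, 40 and 60 min. Reactions were stopped with acetonitrile/formic acid containing internal standard. Remaining parent was measured by UPLC-MS/MS without a calibration curve.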

[2] = Permeability in porcine brain endothelial cell blood-brain barrier model; format: in vitro ADME; details: pig (endothelial cells), co-cultured with rat astrocytes, pH 7.4, PBECs/As blood-brain barrier model, luminal to basal
Outline: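 Co-culture of primary porcine brain endothelial cells on Transwell inserts over primary rat astrocytes, with TEER >500 Ω/cm^2 and FITC-dextran integrity control. Compound added apically in HBSS/20 mM Hepes pH 7.4/0.1% BSA and basal amount measured usually after 60 min, by LC-MS/MS, fluorescence or scintillation. Papp in cm/s, corrected for cell-free filter.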

physchem = details: buffer, phosphate buffered saline, 10 mM phosphate buffer pH 7.5, 37° C.
Protocol: (§1) To measure chemical stability in aqueous solution, the half-life (t1/2), or time needed for the concentration to decrease by half, was determined for select compounds in phosphate buffered saline solution. Compounds were dissolved in a solution containing 10 mM phosphate buffer (pH 7.5) and 5% of D2O to a final concentration of −1 mM. All spectra were obtained at 37° C. on a Bruker Avance 600 NMR spectrometer equipped with an inverse broad-band probe with z-gradients. Data were obtained every 15 min for a total time period of 4 h or longer, according to the observed stability. ^31P NMR was performed at 242.55 MHz, with gated decoupling of the protons. An observation frequency range of 14619.9 Hz and 32 K complex data points were used for acquisition. A pulse angle of 90° and a 4-sec pulse cycle were utilized. Thirty-two accumulations were obtained before Fourier transformation of the free induction decay. ^1H NMR spectra were acquired using the 1DNOESY experiment with water presaturation for better solvent suppression. An observation frequency range of 12019.23 Hz, a 10-sec pulse cycle, and 32 K complex data points were used for acquisition. Sixty-four scans were added prior to Fourier transformation. Integral data were obtained using the TopSpin software.
(§2) Stability was determined based on analysis of disappearance of the compounds as a function of incubation time. Quantification of test compounds was measured as a peak area relative to an internal standard. The elimination constant, k, was calculated by plotting mean disappearance values on a semi-logarithmic scale and fitting with a best fit linear regression. The half-life (t1/2) expressed in hours was derived using Equation 1: t1/2=ln2/(−k). Equation 1:

[3] = Chemical stability in aqueous solution (phosphate buffered saline, NMR)
Protocol: as §1, §2

[4] = Diastereoisomer A (upfield shift in 31P NMR), 3 μM, 37° C., mouse plasma, read-out: t1/2, Mouse Plasma, Diastereoisomer A
[5] = Diastereoisomer B, 3 μM, 37° C., mouse plasma
[6] = Diastereoisomer A, read-out: Papp Diastereoisomer A
[7] = Diastereoisomer B, read-out: Papp Diastereoisomer B
[8] = pH 7.5, t1/2 (h) Diastereoisomer A, Diastereoisomer A = upfield shift in the 31P NMR
[9] = pH 7.5, t1/2 (h) Diastereoisomer B, Diastereoisomer B
[10] = pH 7.5, t1/2 (h) Diastereoisomer A, 10 mM phosphate buffer pH 7.5, 37° C., Diastereoisomer A = upfield shift in the 31P NMR
[11] = pH 7.5, t1/2 (h) Diastereoisomer B, 10 mM phosphate buffer pH 7.5, 37° C., Diastereoisomer B

COC(=O)CCNC(=O)[C@@H]1OP(=O)(N[C@H](C)C(=O)OC)OCC1(C)C (stereo partly drawn) [compound 16, methyl 3-((4R)-2-(((R)-1-methoxy-1-oxopropan-2-yl)amino)-5,5-dimethyl-2-oxido-1,3,2-dioxaphosphinane-4-carboxamido)propanoate]
half-life at 3 µM [1, 4]: < 9.6 min | t1/2, Mouse Plasma, Diastereoisomer B [1, 5]: <9.6 min | Papp A→B at 60 min [2, 6]: 3.33 ×10⁻⁶ cm/s | Papp A→B at 60 min [2, 7]: 4.35 ×10⁻⁶ cm/s | half-life (physchem; [8]): > 80 h | half-life (physchem; [9]): > 80 h

CC1(C)COP(=O)(O)O[C@H]1C(=O)NCCC(=O)O [compound 108, 3-((4R)-2-hydroxy-5,5-dimethyl-2-oxido-1,3,2-dioxaphosphinane-4-carboxamido)propanoic acid]
Papp A→B at 60 min [2, 6]: 0.58 ×10⁻⁶ cm/s | half-life at 1 mM ([3]; pH 7.5, t1/2 (h), pH 7.5, 37° C., compound not chiral at phosphorous, one value spanning both columns): > 100 h

COC(=O)CCNC(=O)[C@@H]1OP(=O)(OCOC(=O)C(C)(C)C)OCC1(C)C (stereo partly drawn) [Compound No. 65, (((4R)-4-((3-methoxy-3-oxopropyl)carbamoyl)-5,5-dimethyl-2-oxido-1,3,2-dioxaphosphinan-2-yl)oxy)methyl pivalate]
half-life at 3 µM ([1]; mouse, plasma): < 9.6 min | t1/2, Mouse Plasma, Diastereoisomer B ([1]; mouse, plasma, 3 µM): <9.6 min | Papp A→B at 60 min [2, 6]: 20.3 ×10⁻⁶ cm/s | Papp A→B at 60 min [2, 7]: 18.3 ×10⁻⁶ cm/s | half-life at 1 mM [3, 10]: 40.5 h | half-life at 1 mM [3, 11]: 7.2 h

COC(=O)CCNC(=O)[C@@H]1OP(=O)(OCOC(=O)c2ccccc2)OCC1(C)C (stereo partly drawn) [Compound No. 64, (((4R)-4-((3-methoxy-3-oxopropyl)carbamoyl)-5,5-dimethyl-2-oxido-1,3,2-dioxaphosphinan-2-yl)oxy)methyl benzoate]
half-life at 3 µM ([1]; mouse, plasma): < 9.6 min | t1/2, Mouse Plasma, Diastereoisomer B ([1]; mouse, plasma, 3 µM): <9.6 min | Papp A→B at 60 min [2, 6]: 16 ×10⁻⁶ cm/s | Papp A→B at 60 min [2, 7]: 20.7 ×10⁻⁶ cm/s | half-life at 1 mM [3, 10]: 87 h | half-life at 1 mM [3, 11]: 13 h

COC(=O)CCNC(=O)[C@@H]1OP(=O)(NCCN2CCCC2)OCC1(C)C (stereo partly drawn) [compound 109, methyl 3-((4R)-5,5-dimethyl-2-oxido-2-((2-(pyrrolidin-1-yl)ethyl)amino)-1,3,2-dioxaphosphinane-4-carboxamido)propanoate]
half-life at 3 µM [1, 4]: < 9.6 min | Papp A→B at 60 min [2, 6]: 5.26 ×10⁻⁶ cm/s | half-life (physchem; [8]): 48 h | half-life (physchem; [9]): 15.4 h

COC(=O)[C@H](C)NP1(=O)OCC(C)(C)[C@H](C(=O)NCCC(=O)OCc2ccncc2)O1 (stereo partly drawn) [compound 20, (2S)-methyl 2-(((4R)-5,5-dimethyl-2-oxido-4-((3-oxo-3-(pyridin-4-ylmethoxy)propyl)carbamoyl)-1,3,2-dioxaphosphinan-2-yl)amino)propanoate]
half-life at 3 µM ([1]; mouse, plasma): < 9.6 min | t1/2, Mouse Plasma, Diastereoisomer B ([1]; mouse, plasma, 3 µM): <9.6 min | Papp A→B at 60 min [2, 6]: 4.79 ×10⁻⁶ cm/s | Papp A→B at 60 min [2, 7]: 3.38 ×10⁻⁶ cm/s | half-life at 1 mM [3, 10]: > 80 h | half-life at 1 mM [3, 11]: > 80 h

COC(=O)CCNC(=O)[C@@H]1OP(=O)(N[C@@H](C)C(=O)OCc2ccccc2)OCC1(C)C (stereo partly drawn) [Compound No. 11, Benzyl ((4R)-4-((3-methoxy-3-oxopropyl)carbamoyl)-5,5-dimethyl-2-oxido-1,3,2-dioxaphosphinan-2-yl)-L-alaninate]
Papp A→B at 60 min [2, 6]: 3.52 ×10⁻⁶ cm/s | Papp A→B at 60 min [2, 7]: 3.12 ×10⁻⁶ cm/s | half-life at 1 mM ([3]; pH 7.5, half-lives, phosphate buffered saline solution, both diastereoisomers): > 60 h | half-life at 1 mM [3, 10]: > 100 h | half-life at 1 mM [3, 11]: > 60 h

COC(=O)CCNC(=O)[C@@H]1OP(=O)(N[C@@H](C)C(=O)OC)OCC1(C)C (stereo partly drawn) [compound 5, methyl 3-((4R)-2-(((S)-1-methoxy-1-oxopropan-2-yl)amino)-5,5-dimethyl-2-oxido-1,3,2-dioxaphosphinane-4-carboxamido)propanoate]
half-life at 3 µM [1, 4]: < 9.6 min | t1/2, Mouse Plasma, Diastereoisomer B [1, 5]: <9.6 min | Papp A→B at 60 min [2, 6]: 6.27 ×10⁻⁶ cm/s | Papp A→B at 60 min [2, 7]: 5.06 ×10⁻⁶ cm/s | half-life (physchem; [8]): 40 h | half-life (physchem; [9]): 40 h

COC(=O)CCNC(=O)[C@@H]1OP(=O)(N[C@@H](C)C(=O)OCc2cc(C)cc(C)c2)OCC1(C)C (stereo partly drawn) [compound 3, (2S)-3,5-dimethylbenzyl 2-(((4R)-4-((3-methoxy-3-oxopropyl)carbamoyl)-5,5-dimethyl-2-oxido-1,3,2-dioxaphosphinan-2-yl)amino)propanoate]
half-life at 3 µM ([1]; mouse, plasma): < 9.6 min | t1/2, Mouse Plasma, Diastereoisomer B ([1]; mouse, plasma, 3 µM): <9.6 min | Papp A→B at 60 min [2, 6]: 9.99 ×10⁻⁶ cm/s | Papp A→B at 60 min [2, 7]: 8.47 ×10⁻⁶ cm/s | half-life at 1 mM [3, 10]: > 80 h | half-life at 1 mM [3, 11]: > 80 h
